US20220267365A1, “NOVEL PHOSPHATE ESTER COMPOUND HAVING PYRROLOPYRIMIDINE SKELETON OR PHARMACEUTICALLY ACCEPTABLE SALT THEREOF” (TAIHO PHARMACEUTICAL CO., LTD., priority 2019, published 2022)
Structures can show the parent of a compound that is named as a salt. One block for each molecule: values may come before it.

Tests used:
[1] = Test Example 1: presence of prodrug in mouse and absorbency, oral administration, plasma AUC; type: in vivo, mice (Balb/cA, male); settings: for presence of prodrug in mouse (conversion into active compound): oral administration
Experimental: The dosage amounts of the compound of Comparative Example 1, a triethylamine salt of the compound of Example 1, the compound of Comparative Example 2 and the compound of Example 2 were set to be 50 mg/10 mL/kg, 62 mg/10 mL/kg (50 mg/10 mL/kg in terms of free compound), 3 mg/10 mL/kg, and 3.6 mg/10 mL/kg, respectively. Solutions for administration were prepared with a 0.5% aqueous solution of HPMC so as to satisfy the above dosage amounts. Note that a solution for administration of a triethylamine salt of the compound of Example 1 was prepared by adding 1 molar equivalent of triethylamine.
The dosage amounts of the compound of Comparative Example 3 and the compound of Example 5 were set to be 3 mg/10 mL/kg and 3.8 mg/10 mL/kg, respectively. Solutions thereof for administration were prepared with a 0.5% aqueous solution of HPMC so as to satisfy the above dosage amounts.
Note that, the “mg/10 mL/kg” means as follows: for example “50 mg/10 mL/kg” means that 50 mg of a test compound per body-weight (1 kg) of a mouse was dispersed or dissolved in a solution (10 mL) for administering a compound. The same applies hereinafter.
The solutions for administration prepared above were orally administered to mice (Balb/cA, male) not fasted each by use of an oral administration sonde.
The mice were anesthetized with isoflurane 0.5, 1, 2, 4 and 6 hours after administration and blood was taken from the facial vein by use of a specific needle (animal lancet) and a heparin-coated hematocrit tube.
The blood sampled was immediately centrifuged (13000 rpm, 2 minutes, 4° C.) to prepare the plasma samples. After proteins were removed from the plasma samples, the concentrations of the test compound in the plasma samples were measured by LC/MS/MS.
The value of “area under the curve” (AUC) of drug concentration in blood versus time was calculated using analysis software such as Phoenix (registered trademark) WinNonlin (registered trademark).
More specifically, the results of the compounds of Comparative Examples 1 and 2 and triethylamine salt of Example 1, and the compound of Example 2 are shown in Table 2; whereas, the results of the compounds of Comparative Example 3 and Example 5 are shown in Table 3. In Table 2 and Table 3, “Comparative Example 1”, “Comparative Example 2”, and “Comparative Example 3” represent the “compound (Br form) of Comparative Example 1”, the “compound (I form) of Comparative Example 2” and the “compound (Cl form) of Comparative Example 3”, respectively.

DU145 = test: Test Example 3 growth suppression activity, CellTiter-Glo; type: cell-based; settings: DU-145, 72 h; DU145, Human prostate cancer, 3 days
Experimental: (§1) Human tumor cell lines different in type were suspended in mediums, seeded in individual wells of a multi-well plate and cultured. On the day after initiation of culture, serially diluted solutions of a compound were added. Culture was carried out for further 3 days. Cells were counted by a CellTiter-Glo (manufactured by Promega KK) in accordance with the protocol recommended by Promega KK. Cell viability was calculated in accordance with the equation shown below and the concentration (IC50 (μM)) of the compound at which 50% of cell growth is inhibited was obtained.
(§2) Cell viability (%)=(T/C)×100
(§3) T: Intensity of light emitted from a well containing a compound
(§4) C: Intensity of light emitted from a well containing no compound

H1650 = test: Test Example 4 growth suppression activity, CellTiter-Glo; type: cell-based; settings: NCI-H1650, 72 h; H1650, Human lung cancer, 3 days
Experimental: as §1, with “(nM))” for “(μM))”
as §2, §3, §4

H2122 = test: as above; type: cell-based; settings: NCI-H2122, 72 h; H2122, Human lung cancer, 3 days
Experimental: as §1, with “(nM))” for “(μM))”
as §2, §3, §4

H358 = test: as above; type: cell-based; settings: NCI-H358, 72 h; H358, Human lung cancer, 3 days
Experimental: as §1, with “(nM))” for “(μM))”
as §2, §3, §4

A549 = test: as above; type: cell-based; settings: 72 h; A549, Human lung cancer, 3 days
Experimental: as §1, with “(nM))” for “(μM))”
as §2, §3, §4

[2] = Test Example 2: presence of prodrug in mouse and absorbency, caudal vein administration, plasma AUC; type: in vivo, mice (Balb/cA, male); settings: for AUC(0-t): male, Balb/cA, caudal vein, physiological saline, mouse plasma, unchanged prodrug; for presence of prodrug in mouse (conversion into active compound): caudal vein administration of disodium salts
Experimental: The dosage amounts of a disodium salt of the compound of Example 1, a disodium salt of the compound of Example 2, a disodium salt of the compound of Example 3, a disodium salt of the compound of Example 4 and a disodium salt of the compound of Example 5 were set to be 26 mg/5 mL/kg, 12 mg/5 mL/kg, 12 mg/5 mL/kg, 12 mg/5 mL/kg, and 11 mg/5 mL/kg, respectively. Solutions for administration were prepared by dissolving the compounds in physiological saline so as to satisfy the above dosage amounts, respectively. Note that solutions for administration of disodium salts of the compounds of Examples 1 to 4 were prepared by adding 2 molar equivalents of sodium hydroxide.
Mice (Balb/cA, male) not fasted were each immobilized on a specific fixed table, sterilized with ethanol for disinfection. Each of the solutions prepared above was administered through the caudal vein by use of a syringe and a needle.
Blood was taken from the facial vein, 0.25, 0.5, 1, 2, 4 and 6 hours after administration by use of a specific needle (animal lancet) and a heparin-coated hematocrit tube.
The blood sampled were immediately centrifuged (13000 rpm, 2 minutes, 4° C.) to prepare the plasma samples. After proteins were removed from the plasma samples, the concentrations of the test compound in the plasma samples were measured by LC/MS/MS.
The value of AUC was calculated using analysis software such as Phoenix (registered trademark), WinNonlin (registered trademark).
The AUC (AUC 0-6 hr) values obtained in the time period of 0 to 6 hours after administration of sodium salts of the compounds of Example 1 to 4 are shown in Table 4; and the AUC (AUC 0-6 hr) values obtained in the time period of 0 to 6 hours after administration of a sodium salt of the compound of Example 5 are shown in Table 5. In Table 4 and Table 5, “Comparative Example 1”, “Comparative Example 2” and “Comparative Example 3” represent the “compound (Br form) of Comparative Example 1”, the “compound (I form) of Comparative Example 2”, and the “compound (Cl form) of Comparative Example 3”, respectively.

[3] = tested on: human brain tumor cell line (U-87 MG); test: Test Example 6: antitumor effect and toxicity in mouse, subcutaneous U-87 MG transplant; type: in vivo, BALB/cA Jcl-nu/nu mice
Experimental: The day of grouping mice was determined Day 0.
TV (mm^3)=(major axis×minor axis^2)/2
RTV=(TV on evaluation date)/(TV on Day 0)
IR (%)=(1−(RTV of administration group on evaluation date)/(RTV of control group on evaluation date))×100

[4] = tested on: human hematopoietic organ tumor cell line (MV-4-11); test: Test Example 7: antitumor effect and toxicity in mouse, subcutaneous MV-4-11 transplant
Experimental: A human hematopoietic organ tumor cell line (MV-4-11) was subcutaneously transplanted in the right chest of each of BALB/cA Jcl-nu/nu mice. After tumor transplantation, the major axes (mm) and minor axes (mm) of the tumors were measured and tumor volumes (TV) were calculated. The mice were assigned to individual groups such that the average TVs of the groups became equal. The day of grouping mice was determined Day 0.
Thereafter, administration was continued as long as a weight loss was acceptable and then evaluated.
The tumor volumes (TV) and body weights (BW) of individual groups were evaluated. As the indexes of antitumor effect and toxicity, the relative tumor volume (RTV) to that of Day 0 and a body weight change (BWC) relative to that of Day 0 were obtained, respectively, in accordance with the following equations and plotted on a chart.
BWC (%)=(BW on evaluation date−BW on Day 0)/(BW on Day 0)×100
T/C (%)=(Number of blood cell component in administration group/Number of blood cell component in control group)×100

[5] = iv, 12 mg/kg, read-out: AUC 0-6 hr in terms of the administered Example compound

AUC(0-t) ([1]; male, Balb/cA, oral, 50 mg/kg (0.14 mmol/kg), 0.5% HPMC, mouse plasma, administered compound, read-out: AUC 0-6 hr): 20.2 µM·h
IC50 (DU145): 0.09 µM
IC50 (H1650): 0.011 µM
IC50 (H2122): 0.017 µM
IC50 (H358): 0.069 µM
IC50 (A549): 0.024 µM
SMILES: Nc1ncnc2c1c(Br)cn2[C@@H]1O[C@H](CO)[C@@H](O)[C@@H]1F [Comparative Example 1, (2R,3R,4S,5R)-5-(4-amino-5-bromo-7H-pyrrolo[2,3-d]pyrimidin-7-yl)-4-fluoro-2-(hydroxymethyl) tetrahydrofuran-3-ol]

AUC(0-t) ([2]; iv, 26 mg/kg, read-out: AUC 0-6 hr in terms of Example 1): 0.15 µM·h
SMILES: Nc1ncnc2c1c(Br)cn2[C@@H]1O[C@H](COP(=O)(O)O)[C@@H](O)[C@@H]1F [Disodium salt of Example 1, ((2R,3R,4S,5R)-5-(4-amino-5-bromo-7H-pyrrolo[2,3-d]pyrimidin-7-yl)-4-fluoro-3-hydroxytetrahydrofuran-2-yl)methyl dihydrogen phosphate]

SMILES: Nc1ncnc2c1c(I)cn2[C@@H]1O[C@H](COP(=O)(O)O)[C@@H](O)[C@@H]1F [Disodium salt of Example 2, ((2R,3R,4S,5R)-5-(4-amino-5-iodo-7H-pyrrolo[2,3-d]pyrimidin-7-yl)-4-fluoro-3-hydroxytetrahydrofuran-2-yl)methyl dihydrogen phosphate]
AUC(0-t) [2, 5]: 0.64 µM·h

SMILES: Nc1ncnc2c1c(I)cn2[C@@H]1O[C@H](COP(O)(O)=S)[C@@H](O)[C@@H]1F [Disodium salt of Example 3, O-(((2R,3R,4S,5R)-5-(4-amino-5-iodo-7H-pyrrolo[2,3-d]pyrimidin-7-yl)-4-fluoro-3-hydroxytetrahydrofuran-2-yl)methyl) O,O-dihydrogen phosphorothioate]
AUC(0-t) [2, 5]: 0.18 µM·h

AUC(0-t) [2, 5]: 9.35 µM·h
SMILES: Nc1ncnc2c1c(I)cn2[C@@H]1O[C@H](CO)C(OP(=O)(O)O)C1F (stereo partly drawn) [Disodium salt of Example 4, (2R,3R,4S,5R)-5-(4-amino-5-iodo-7H-pyrrolo[2,3-d]pyrimidin-7-yl)-4-fluoro-2-(hydroxymethyl) tetrahydrofuran-3-yl dihydrogen phosphate]

AUC(0-t) ([2]; intravenous, 11 mg/kg, read-out: AUC 0-6 hr in terms of Example 5): 0.08 µM·h
SMILES: Nc1ncnc2c1c(Cl)cn2[C@@H]1O[C@H](COP(=O)(O)O)[C@@H](O)[C@@H]1F [Disodium salt of Example 5, ((2R,3R,4S,5R)-5-(4-amino-5-chloro-7H-pyrrolo[2,3-d]pyrimidin-7-yl)-4-fluoro-3-hydroxytetrahydrofuran-2-yl)methyl dihydrogen phosphate]

SMILES: Nc1ncnc2c1c(Br)cn2[C@@H]1O[C@H](COP(=O)(O)O)[C@@H](O)[C@@H]1F [Example 1, ((2R,3R,4S,5R)-5-(4-amino-5-bromo-7H-pyrrolo[2,3-d]pyrimidin-7-yl)-4-fluoro-3-hydroxytetrahydrofuran-2-yl)methyl dihydrogen phosphate]
presence of prodrug in mouse (conversion into active compound) [1]: prodrug of the compound (Br form) of Comparative Example 1
presence of prodrug in mouse (conversion into active compound) [2]: prodrug of the compound (Br form) of Comparative Example 1

SMILES: Nc1ncnc2c1c(I)cn2[C@@H]1O[C@H](COP(=O)(O)O)[C@@H](O)[C@@H]1F [Example 2, ((2R,3R,4S,5R)-5-(4-amino-5-iodo-7H-pyrrolo[2,3-d]pyrimidin-7-yl)-4-fluoro-3-hydroxytetrahydrofuran-2-yl)methyl dihydrogen phosphate]
presence of prodrug in mouse (conversion into active compound) [1]: prodrug of the compound (I form) of Comparative Example 2
continuation of administration compared to Comparative Example 2-compound administration group ([3]; administration continued until weight loss 20% or more, Day 13 vs Day 6): continued longer
effect on body weight (BWC) ([3]; oral 14.4 mg/kg/day every day): mild
antitumor effect (IR based on RTV) ([3]; oral 14.4 mg/kg/day every day, final day of evaluation Day 13, compared with Comparative Example 2 12 mg/kg/day, Day 6): high antitumor effect
continuation of administration compared to Comparative Example 2-compound administration group ([4]; Day 15 vs Day 11 (Comparative Example 2 oral 12 mg/kg/day)): continued longer
effect on body weight (BWC) ([4]; osmotic pump 20 mg/kg/day for 14 days): low
hematological toxicity (lymphocytes, monocytes T/C) ([4]; osmotic pump 20 mg/kg/day for 14 days, Day 15): low
antitumor effect (RTV) ([4]; osmotic pump 20 mg/kg/day for 14 days, final day Day 15): remarkable antitumor effect (tumor regression was confirmed)

SMILES: Nc1ncnc2c1c(Cl)cn2[C@@H]1O[C@H](COP(=O)(O)O)[C@@H](O)[C@@H]1F [Example 5, ((2R,3R,4S,5R)-5-(4-amino-5-chloro-7H-pyrrolo[2,3-d]pyrimidin-7-yl)-4-fluoro-3-hydroxytetrahydrofuran-2-yl)methyl dihydrogen phosphate]
presence of prodrug in mouse (conversion into active compound) [1]: prodrug of the compound (Cl form) of Comparative Example 3
presence of prodrug in mouse (conversion into active compound) [2]: prodrug of the compound (Cl form) of Comparative Example
